In one series the target is T1, MMP-7 (Homo sapiens, UniProt P09237).
T1 sequence (P09237 95-267): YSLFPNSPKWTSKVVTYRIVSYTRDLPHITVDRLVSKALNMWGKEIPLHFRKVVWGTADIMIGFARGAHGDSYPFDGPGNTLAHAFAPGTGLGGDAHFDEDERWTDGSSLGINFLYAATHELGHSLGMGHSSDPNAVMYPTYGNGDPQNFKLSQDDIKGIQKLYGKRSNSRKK
The settings on record: read-out: MMP-7 Kl; cited from earlier work.

Another series addresses MMP-3 (stromelysin) (Homo sapiens, UniProt P08254). As to conditions: read-out: MMP-3 (stromelysin) Kl; cited from earlier work.
The next series addresses T2, MMP-1 (collagenase-1) (Homo sapiens, UniProt P03956).
T2 sequence (P03956 100-469): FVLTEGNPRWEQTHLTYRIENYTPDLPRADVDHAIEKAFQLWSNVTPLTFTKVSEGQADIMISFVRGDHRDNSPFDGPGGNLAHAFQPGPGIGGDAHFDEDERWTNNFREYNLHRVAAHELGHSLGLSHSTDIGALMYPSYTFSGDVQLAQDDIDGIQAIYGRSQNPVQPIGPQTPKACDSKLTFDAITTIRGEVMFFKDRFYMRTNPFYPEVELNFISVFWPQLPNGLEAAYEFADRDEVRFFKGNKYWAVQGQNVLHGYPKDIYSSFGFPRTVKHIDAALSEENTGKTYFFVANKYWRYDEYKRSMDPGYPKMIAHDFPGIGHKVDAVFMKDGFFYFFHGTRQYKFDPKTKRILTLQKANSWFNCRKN
The settings on record: read-out: MMP-1 (collagenase-1) Kl; cited from earlier work.

Another series has as its target T3, MMP-2 (gelatinase A) (Homo sapiens, UniProt P08253).
T3 sequence (P08253 110-660): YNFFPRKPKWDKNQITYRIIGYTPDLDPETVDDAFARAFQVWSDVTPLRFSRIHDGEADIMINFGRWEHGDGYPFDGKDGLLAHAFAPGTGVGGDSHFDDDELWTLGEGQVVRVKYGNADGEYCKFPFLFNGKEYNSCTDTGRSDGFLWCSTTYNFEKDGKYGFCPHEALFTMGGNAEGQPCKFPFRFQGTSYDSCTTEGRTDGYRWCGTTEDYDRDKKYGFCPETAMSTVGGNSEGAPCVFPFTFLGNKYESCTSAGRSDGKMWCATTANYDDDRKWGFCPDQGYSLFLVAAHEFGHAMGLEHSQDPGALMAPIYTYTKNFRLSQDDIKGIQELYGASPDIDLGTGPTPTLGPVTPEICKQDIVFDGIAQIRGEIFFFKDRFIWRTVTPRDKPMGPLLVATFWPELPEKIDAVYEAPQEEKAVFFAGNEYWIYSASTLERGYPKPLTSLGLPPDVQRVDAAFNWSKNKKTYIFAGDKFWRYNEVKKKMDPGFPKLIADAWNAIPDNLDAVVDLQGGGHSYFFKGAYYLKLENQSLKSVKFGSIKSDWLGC
As to conditions: read-out: MMP-2 (gelatinase A) Kl; cited from earlier work.

A further series has as its target MMP-9 (gelatinase B) (Homo sapiens, UniProt P14780). As to conditions: read-out: MMP-9 (gelatinase B) Kl; cited from earlier work.
Series [1] deals with MMP activity (assay designed primarily to detect MMP-9 activity). In words: MMP activity of BAL samples from smoking mice treated with nebulized ilomastat. It is filed as in vivo. The settings on record: for MMP Activity of BAL sample (mAU/min): drug treated (ilomastat 100 ug/mL nebulized daily), individual mouse samples. On the procedure: The 2-week study was a repeat of the 1-week study but used 10 animals/group.
At the end of each study, BAL samples were obtained from the lungs of each animal using established procedures and each sample was tested for MMP activity using an assay designed primarily to detect MMP-9 activity.
• 1. 150 μL of MMP Reagent Mix was added to each well. The reagent mix consisted of the appropriate dilutions of previously prepared stock solutions in order to yield the following final concentrations in 200 μL final volume/well: • HEPES stock (50 mM final) • CaCl2 stock (10 mM final) • Ellmans Reagent stock (1.25 mM final) • Substrate (Bachem #H7145) stock (475 μM final) • Q.S. with dH2O • 2. Microtiter plate was placed in the 30° C. incubator for 15 min. • 3. 50 μL/well of each BAL sample was added into the appropriate wells • 4. 50 μL/well of vehicle control buffer was added to blank well. • 5. 48 μL/well of vehicle control buffer and 2 μL of MMP-9 (20 ng, CalBiochem #444231) was added to the control well. • 6. Plate was placed in VersaMax Microtiter Plate Reader which was pre-equilibrated to 30° C. • 7. Abs410 was read every 5-6 min for 3 hrs Results and Conclusions: […]

For the next series, the system named is human MMP-9. In words: MMP-9 fluorescent activity assay in induced sputum samples. It is filed as biochemical. On the procedure: Induced sputum (IS) samples were collected from 22 healthy smokers (HS) and 19 patients with clinical evidence of chronic obstructive pulmonary disease (COPD) (Inclusion criteria: FER<0.7 and FEV1 % Predicted 30-80%). The IS was processed using dithiothreitol as previously described by Pavord et al. (1997) Thorax 52, 498-501. 15 randomly selected IS were used for inhibitor studies (COPD n=7; HS n=8).
MMP-9 activity in IS was measured using a commercially available human MMP-9 fluorescent activity assay (Fluorokine® E, R&D Systems, Europe, UK). Following binding of MMP-9 (92, 82, 62 kDa forms) to an immobilized monoclonal antibody, a fluorogenic substrate linked to a quencher molecule was added. Any active MMP-9 cleaved the peptide linkers between the fluorophore and the quencher molecule allowing measurement of the fluorescence using a fluorimeter (Spectrafluor Plus, Tecan, UK). For inhibitor studies, the IS samples were incubated for 30 minutes at room temperature with the inhibitors prior to addition of the synthetic substrate.

In the next series the test system is sheep model for asthma. The series is described as follows: Sheep model for asthma: carbachol challenge, DRC/PC 400%. It is filed as in vivo. The settings on record: 30 μg dose, 24 hours after administration. As to the method: Phosphate buffered saline (PBS) (control) • 2. […] Results:
DRC/PC %400 refers to the amount of carbochol required to induce a 400% change in airway hyperresponsiveness. The amount required is measured as carbachol breath units (BU); the aerosol concentration of carbachol is fixed and the animal continues to inhale until the appropriate response in obtained. Thus, a higher value indicates a protective effect against an asthmatic reaction.

Series [2] concerns the target MMP-12 (macrophage metalloelastase, ME) (Homo sapiens, UniProt P39900). The settings on record: read-out: MMP-12 (macrophage metalloelastase, ME) Kl; cited from earlier work.
Series [3] in a line: Solubility in liquid formulation. It is filed as physicochemical. As to conditions: depending on the formulation, read-out: soluble in liquid formulation at levels up to.
The subject of series [4] is murine model of cigarette smoke-related emphysema. In words: Murine model of cigarette smoke-related emphysema: lung morphometry, mean linear intercept (Lm). In kind it is in vivo. The settings on record: smoking mice.
Procedure: Five groups of animals were studied. […] Group 1 animals (32 animals) were control non-smoking animals. Group 2 animals (32 animals) were administered aerosolized PBS (10 ml/5 animals) followed by cigarette smoke. […] All adult mice (12 weeks of age at initiation) were exposed to two cigarettes per day, 6 days/wk for up to 6 months. Within each treatment group there were 3 timepoints for analysis: 1 week, 3 months, and 6 months. […] Delivery proceeded until the nebulizer ran dry (about 30 minutes). […] All were prepared in sterile saline. Vehicle control animals received sterile saline only. In each animal, the right lung was removed and used for fixation/inflation and paraffin embedding to study morphometry, to determine mean linear intercept (Lm), which is the distance between the walls of alveoli, and which increases as proteases (e.g., elastase, metalloproteases) break down pulmonary structure.
The test system is the same in series [5]. In words: Murine model of cigarette smoke-related emphysema: inflammatory cells in bronchoalveolar lavage (BAL). In kind it is in vivo. As to conditions: smoking mice.
Procedure: Five groups of animals were studied. […] Group 1 animals (32 animals) were control non-smoking animals. Group 2 animals (32 animals) were administered aerosolized PBS (10 ml/5 animals) followed by cigarette smoke. […] All adult mice (12 weeks of age at initiation) were exposed to two cigarettes per day, 6 days/wk for up to 6 months.
Within each treatment group there were 3 timepoints for analysis: 1 week, 3 months, and 6 months. After one week, 3 months, and 6 months on study, 10 animals, 10 animals, and 12 animals respectively, from each group were sacrificed and analytical work on lungs and lung samples was performed (see below).
10 mL of sterile saline or drug was placed in the nebulizer and delivered to each group of five animals. Delivery proceeded until the nebulizer ran dry (about 30 minutes).
All were prepared in sterile saline. Vehicle control animals received sterile saline only.
The left lung was subjected to bronchoalveolar lavage (BAL) to determine levels of the inflammatory cell types macrophages and neutrophils, which were counted by morphology. BAL samples were collected using 0.5 mL rinses of the left lung.

Some results are limits rather than exact numbers.

Chain of MMP-3 (stromelysin) (P08254 100-477, species assumed): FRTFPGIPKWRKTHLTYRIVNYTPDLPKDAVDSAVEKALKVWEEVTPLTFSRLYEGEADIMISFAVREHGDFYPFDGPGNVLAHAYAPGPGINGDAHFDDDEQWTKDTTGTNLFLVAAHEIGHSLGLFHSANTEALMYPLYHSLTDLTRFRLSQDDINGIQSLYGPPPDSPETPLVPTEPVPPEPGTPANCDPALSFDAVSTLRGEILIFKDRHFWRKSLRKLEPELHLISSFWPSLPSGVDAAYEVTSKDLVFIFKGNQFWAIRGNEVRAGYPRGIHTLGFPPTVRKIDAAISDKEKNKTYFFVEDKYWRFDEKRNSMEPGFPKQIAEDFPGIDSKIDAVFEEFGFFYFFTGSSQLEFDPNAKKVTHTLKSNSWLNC
Chain of MMP-12 (macrophage metalloelastase, ME) (P39900 106-470, species assumed): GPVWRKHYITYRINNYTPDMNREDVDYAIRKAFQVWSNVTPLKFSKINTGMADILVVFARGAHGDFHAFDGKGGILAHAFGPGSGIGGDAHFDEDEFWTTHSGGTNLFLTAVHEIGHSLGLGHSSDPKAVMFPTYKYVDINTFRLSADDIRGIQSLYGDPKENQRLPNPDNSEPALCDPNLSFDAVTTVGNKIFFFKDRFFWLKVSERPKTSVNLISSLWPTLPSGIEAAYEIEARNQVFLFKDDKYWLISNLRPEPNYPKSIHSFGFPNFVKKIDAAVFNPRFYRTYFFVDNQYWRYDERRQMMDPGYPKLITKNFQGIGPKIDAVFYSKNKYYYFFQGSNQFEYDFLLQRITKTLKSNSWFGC
Chain of MMP-9 (gelatinase B) (P14780 94-707, species assumed): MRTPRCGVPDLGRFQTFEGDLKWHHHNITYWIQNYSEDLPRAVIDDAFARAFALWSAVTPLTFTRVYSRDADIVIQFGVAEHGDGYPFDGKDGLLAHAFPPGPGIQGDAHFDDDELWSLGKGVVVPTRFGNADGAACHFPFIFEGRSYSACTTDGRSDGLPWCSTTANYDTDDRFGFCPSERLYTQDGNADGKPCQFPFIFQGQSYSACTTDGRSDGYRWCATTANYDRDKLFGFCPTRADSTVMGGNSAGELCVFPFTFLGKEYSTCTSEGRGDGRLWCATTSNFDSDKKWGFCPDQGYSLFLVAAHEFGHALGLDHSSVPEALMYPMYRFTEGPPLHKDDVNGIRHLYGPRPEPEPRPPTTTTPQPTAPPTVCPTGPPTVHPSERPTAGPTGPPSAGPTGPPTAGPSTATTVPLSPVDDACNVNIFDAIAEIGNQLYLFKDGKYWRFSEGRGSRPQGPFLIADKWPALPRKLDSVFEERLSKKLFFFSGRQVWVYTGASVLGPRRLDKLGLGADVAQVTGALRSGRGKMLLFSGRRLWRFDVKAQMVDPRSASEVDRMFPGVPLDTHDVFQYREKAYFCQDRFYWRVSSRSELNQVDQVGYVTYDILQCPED

Take `O=C(NO)C1(CS(=O)(=O)c2ccc(Oc3ccc(Cl)cc3)cc2)CCOCC1` [RS-130,830]: the Ki at MMP-7 was 1200 nM; at MMP-3 (stromelysin), 9 nM; on MMP-1 (collagenase-1), 590 nM.
On to `CN1C(=O)N(C[C@@H](C(=O)NO)[C@@H](CC2CCCC2)C(=O)N2CCCCC2)C(=O)C1(C)C` [Ro 32-3555], for which the Ki is 154 nM at MMP-2 (gelatinase A) and 59 nM on MMP-9 (gelatinase B).
For the compound `CNC(=O)[C@H](Cc1c[nH]c2ccccc12)NC(=O)[C@@H](CC(=O)NO)CC(C)C` [ilomastat, N-[2(R)-2(hydroxyamidocarbonylmethyl)-4-methylpentanoyl]-L-tryptophan methylamide], the “MMP activity of BAL samples, in words” value in series [1] (1-week study, all five treated mouse samples) is on record as “no detectable MMP activity”; in series [1] (2-week study, all ten treated mouse samples), “no detectable MMP activity”. For the same compound, the “MMP Activity of BAL sample (mAU/min)” value in series [1] (2 week study) and in series [1] (Pilot study (1 week)) was 0 mAU/min in each case. Moreover, the “inhibitory effect on MMP-9 activity in induced sputum” value in the series with human MMP-9 (30 uM, IS from COPD patients, p=0.249 (ns)) is 9.2+/−7.2%; in the series on human MMP-9 (30 uM, IS from healthy smokers (HS), p=0.015), 22.6+/−6.7%; in the series on human MMP-9 (100 uM, IS from COPD patients, p=0.004), 42.5+/−9.3%; in the series with human MMP-9 (100 uM, IS from healthy smokers (HS), p=0.008) it was 39.4+/−6.3%. The Ki at MMP-3 (stromelysin) was 26 to 27 nM; in series [2] it was 0.2 to 0.4 nM. For the same compound, in the series on sheep model for asthma, the “effect against asthmatic reaction, in words” value is reported as “clear protective effect”. Besides, the solubility in series [3] is at most 15 mg/mL. Also, the entries for the “% protection (Lm)” value in [4] (ilomastat dose 1 (100 ug/mL)), in series [4] (ilomastat dose 2 (50 ug/ml)) and in series [4] (ilomastat dose 3 (10 ug/ml)) were 83%, 96% and 42%, respectively. Besides, the “Lm vs. non-smokers (%)” value in series [4] (ilomastat dose 1 (100 ug/mL)) was 2.6%; in [4] (ilomastat dose 2 (50 ug/ml)) it was 0.6%; in series [4] (ilomastat dose 3 (10 ug/ml)), 8.7%. Moreover, the results for the “Macrophages, cells per ml of BAL fluid” value in [5] (ilomastat dose 1 (100 ug/mL)), in [5] (ilomastat dose 2 (50 ug/ml)) and in series [5] (ilomastat dose 3 (10 ug/ml)) were 1000 cells per ml, 1500 cells per ml and 2500 cells per ml, respectively. For the same compound, the entries for the “Neutrophils, cells per ml of BAL fluid” value in series [5] (ilomastat dose 1 (100 ug/mL)), in [5] (ilomastat dose 2 (50 ug/ml)) and in [5] (ilomastat dose 3 (10 ug/ml)) were 100 cells per ml, 220 cells per ml and 50 cells per ml, respectively.

Source of the values: patent publication US20050107306A1, “Treatment of respiratory disease associated with matrix metalloproteases by inhalation of synthetic matrix metalloprotease inhibitors” (priority 2003, published 2005).
